The target in test [1] is T1, beta-catenin-B-cell lymphoma 9 protein complex (Homo sapiens, UniProt P35222).
T1 sequence (P35222 whole entry): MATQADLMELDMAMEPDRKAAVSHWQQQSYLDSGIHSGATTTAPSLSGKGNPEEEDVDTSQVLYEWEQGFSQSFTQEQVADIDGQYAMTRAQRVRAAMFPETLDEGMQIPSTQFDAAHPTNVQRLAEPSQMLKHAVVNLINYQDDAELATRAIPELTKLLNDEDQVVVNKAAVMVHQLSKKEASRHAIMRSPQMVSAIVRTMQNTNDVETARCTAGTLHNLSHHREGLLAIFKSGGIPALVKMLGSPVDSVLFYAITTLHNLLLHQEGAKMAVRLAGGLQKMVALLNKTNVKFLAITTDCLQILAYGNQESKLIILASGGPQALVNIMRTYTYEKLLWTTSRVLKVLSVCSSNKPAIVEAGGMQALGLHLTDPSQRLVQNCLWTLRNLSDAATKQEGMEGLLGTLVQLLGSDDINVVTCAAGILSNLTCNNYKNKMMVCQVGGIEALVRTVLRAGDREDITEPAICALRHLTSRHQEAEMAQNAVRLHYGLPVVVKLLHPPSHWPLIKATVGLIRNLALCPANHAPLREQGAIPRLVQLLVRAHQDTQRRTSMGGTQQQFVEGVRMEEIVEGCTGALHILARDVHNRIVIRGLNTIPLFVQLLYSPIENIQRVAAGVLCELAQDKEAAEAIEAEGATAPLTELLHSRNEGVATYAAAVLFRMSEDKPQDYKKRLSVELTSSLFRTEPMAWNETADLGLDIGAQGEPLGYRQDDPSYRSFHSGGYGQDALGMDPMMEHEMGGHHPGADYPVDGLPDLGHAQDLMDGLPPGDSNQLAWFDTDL
T1 sequence (O00512 whole entry): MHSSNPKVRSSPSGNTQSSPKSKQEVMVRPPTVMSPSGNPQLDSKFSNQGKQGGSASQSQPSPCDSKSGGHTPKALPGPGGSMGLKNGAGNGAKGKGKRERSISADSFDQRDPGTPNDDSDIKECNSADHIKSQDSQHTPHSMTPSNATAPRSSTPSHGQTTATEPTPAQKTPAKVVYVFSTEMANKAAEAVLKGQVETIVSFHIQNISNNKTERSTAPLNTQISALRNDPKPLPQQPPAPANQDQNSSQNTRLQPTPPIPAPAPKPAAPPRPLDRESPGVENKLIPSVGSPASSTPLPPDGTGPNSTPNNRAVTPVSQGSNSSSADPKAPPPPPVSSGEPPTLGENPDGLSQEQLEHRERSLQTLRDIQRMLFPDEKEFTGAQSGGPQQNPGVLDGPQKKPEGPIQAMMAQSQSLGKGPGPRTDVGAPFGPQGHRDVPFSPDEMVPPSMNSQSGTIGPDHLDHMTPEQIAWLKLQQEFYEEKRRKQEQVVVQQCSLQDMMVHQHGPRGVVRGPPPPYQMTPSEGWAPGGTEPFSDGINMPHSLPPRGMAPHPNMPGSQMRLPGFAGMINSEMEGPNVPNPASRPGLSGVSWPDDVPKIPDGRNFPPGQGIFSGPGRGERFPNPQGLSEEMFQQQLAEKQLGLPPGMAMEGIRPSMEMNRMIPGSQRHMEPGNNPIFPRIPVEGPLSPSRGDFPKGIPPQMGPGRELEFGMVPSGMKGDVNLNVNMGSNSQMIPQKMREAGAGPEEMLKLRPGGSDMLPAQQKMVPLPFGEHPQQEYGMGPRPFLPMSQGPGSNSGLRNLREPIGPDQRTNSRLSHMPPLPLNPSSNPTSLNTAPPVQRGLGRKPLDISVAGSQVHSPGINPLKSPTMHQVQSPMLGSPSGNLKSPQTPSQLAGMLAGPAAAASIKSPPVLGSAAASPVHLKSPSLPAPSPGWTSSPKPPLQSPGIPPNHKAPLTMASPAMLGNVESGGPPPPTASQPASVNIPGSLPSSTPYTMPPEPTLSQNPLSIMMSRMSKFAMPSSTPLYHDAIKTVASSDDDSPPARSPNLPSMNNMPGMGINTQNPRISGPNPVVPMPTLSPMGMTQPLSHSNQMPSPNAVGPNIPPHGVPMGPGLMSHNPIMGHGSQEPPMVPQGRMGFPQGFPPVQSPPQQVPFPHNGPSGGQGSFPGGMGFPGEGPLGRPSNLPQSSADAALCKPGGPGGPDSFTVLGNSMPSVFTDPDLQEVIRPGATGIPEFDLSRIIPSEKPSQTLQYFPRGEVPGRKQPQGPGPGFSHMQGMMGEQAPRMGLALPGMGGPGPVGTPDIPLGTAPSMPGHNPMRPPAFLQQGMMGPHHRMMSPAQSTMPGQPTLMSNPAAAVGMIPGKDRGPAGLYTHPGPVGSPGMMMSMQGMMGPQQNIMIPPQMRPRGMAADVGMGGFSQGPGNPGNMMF
In words: Inhibition of full length C-terminal 6-His-tagged beta-catenin (1 to 781 residues) (unknown origin) expressed in Escherichia coli BL21 (DE3)-N-terminal biotinylated human BCL9 (350 to 375 residues) protein-protein interaction incubated for 1 hr by Alphascreen assay.

Test [2] relates to MCF-10A. The test is described as follows: Antiproliferative activity against human MCF10A cells incubated for 72 hrs by MTS assay. The format is functional, cell-based.
The subject of test [3] is HCT-116. The test is described as follows: Antiproliferative activity against human HCT116 cells incubated for 72 hrs by MTS assay. In kind it is functional, cell-based. The following applies: HCT-116, 72 h.
The subject of test [4] is MDA-MB-231. In words: Antiproliferative activity against human MDA-MB-231 cells incubated for 72 hrs by MTS assay. The format is functional, cell-based. The following applies: MDA-MB-231, 72 h.
Test [5] deals with MDA-MB-468. The test is described as follows: Antiproliferative activity against human MDA-MB-468 cells incubated for 72 hrs by MTS assay. The format is functional, cell-based. To be noted: MDA-MB-468, 72 h.
The subject of test [6] is SW480. In words: Antiproliferative activity against human SW480 cells incubated for 72 hrs by MTS assay. In kind it is functional, cell-based. The following applies: SW480, 72 h.

In test [1], `CC(C)(Oc1cccc(N2CCCC(C(=O)N(Cc3ccc(-c4cccs4)cc3)C3CC3)C2)c1)C(=O)NS(=O)(=O)c1ccc(C#N)cc1` (racemic) showed an IC50 of 4.8 µM and an inhibition constant Ki of 3.9 µM.

In test [1], `CC(C)c1ccc(CN(C(=O)C2CCCN(c3cccc(OC(C)(C)C(=O)O)c3)C2)C(C)C)cc1` (centres undefined) displayed an IC50 of 52 µM and a Ki of 46 µM.

As to `CC(C)(Oc1cccc(N2CCCC(C(=O)N(Cc3ccc(-c4ccco4)cc3)C3CC3)C2)c1)C(=O)O` (centres undefined), in test [1], the IC50 is 50 µM and affinity was put at a Ki of 42 µM.

In test [1], `CC(C)(Oc1cccc(N2CCC[C@@H](C(=O)N(Cc3ccc(-c4cccs4)cc3)C3CC3)C2)c1)C(=O)NS(=O)(=O)c1ccc(C#N)cc1` displayed an IC50 of 4.8 µM and a Ki of 3.9 µM.

In test [1], `COC(=O)C(C)(C)Oc1cccc(N2CCCC(C(=O)N(Cc3ccc(-c4cccs4)cc3)C3CC3)C2)c1` (centres undefined) gave an IC50 of more than 100 µM and an inhibition constant Ki of more than 90 µM.

On to `CC(C)(Oc1cccc(N2CCCC(C(=O)N(Cc3ccc(-c4cccs4)cc3)C3CC3)C2)c1)C(=O)NS(=O)(=O)c1ccccc1` (centres undefined), for which, in test [1], the IC50 was found to be 7.7 µM and the affinity, expressed as Ki, was 6.4 µM.

In test [1], `CC(C)(Oc1cccc(N2CCCC(C(=O)N(Cc3ccc(-c4cccs4)cc3)C3CC3)C2)c1)C(=O)NS(=O)(=O)C1CC1` (centres undefined) showed an IC50 of 23 µM and a Ki of 19 µM.

In test [1], `CC(C)(Oc1cccc(N2CCCC(C(=O)N(Cc3ccc(-c4ccoc4)cc3)C3CC3)C2)c1)C(=O)O` (centres undefined) registered a half-inhibitory concentration (IC50) of more than 100 µM and a Ki of more than 90 µM.

In test [1], `COc1cccc(S(=O)(=O)NC(=O)C(C)(C)Oc2cccc(N3CCC[C@@H](C(=O)N(Cc4ccc(-c5cccs5)cc4)C4CC4)C3)c2)c1` displayed a half-inhibitory concentration (IC50) of 5.7 µM and a Ki of 4.6 µM.

In test [1], `CC(C)(Oc1cccc(N2CCCC(C(=O)N(Cc3ccc(-c4cn[nH]c4)cc3)C3CC3)C2)c1)C(=O)O` (centres undefined) showed a half-inhibitory concentration (IC50) of more than 100 µM and a Ki of more than 90 µM.

In test [1], `CC(C)c1ccc(CN(C(=O)C2CCCN(c3cccc(OC(C)(C)C(=O)O)c3)C2)C2CC2)cc1` (centres undefined) displayed a concentration for half-maximal inhibition (IC50) of 40 µM and an inhibition constant Ki of 36 µM.

Regarding `CCN(Cc1ccc(C(C)C)cc1)C(=O)C1CCCN(c2cccc(OC(C)(C)C(=O)O)c2)C1` (centres undefined), in test [1], the midpoint of inhibition, the IC50, lay at 59 µM and affinity was put at a Ki of 50 µM.

Take `CC(C)(Oc1cccc(N2CCCC(C(=O)N(Cc3ccc(-c4cccs4)cc3)C3CC3)C2)c1)C(=O)O` (centres undefined): the half-inhibitory concentration (IC50) in test [2] came to 98.5 µM; in test [1], 15 µM; in test [3], 112 µM; in test [4] it was 103 µM; in test [5], 95.9 µM; in test [6] it was 137 µM. Moreover, in test [1], affinity was put at a Ki of 13 µM.

For `CC(C)(C)OC(=O)C(C)(C)Oc1cccc(N2CCCC(C(=O)N(Cc3ccc(-c4cccs4)cc3)C3CC3)C2)c1` (centres undefined), the IC50 was more than 200 µM in test [2]; more than 100 µM in test [1]; more than 200 µM in test [3]; more than 200 µM in test [4]; more than 200 µM in test [5]; more than 200 µM in test [6]. Besides, the Ki in test [1] is more than 90 µM.

In test [1], `COc1ccc(S(=O)(=O)NC(=O)C(C)(C)Oc2cccc(N3CCCC(C(=O)N(Cc4ccc(-c5cccs5)cc4)C4CC4)C3)c2)cc1` (centres undefined) gave an IC50 of 6.1 µM and an inhibition constant Ki of 4.9 µM.

Take `CC(C)S(=O)(=O)NC(=O)C(C)(C)Oc1cccc(N2CCCC(C(=O)N(Cc3ccc(-c4cccs4)cc3)C3CC3)C2)c1` (centres undefined): in test [1], 13 µM corresponded to half-maximal inhibition (IC50) and the Ki is 11 µM.

In test [1], `CC(C)c1ccc(CCNC(=O)C2CCCN(c3cccc(OC(C)(C)C(=O)O)c3)C2)cc1` (centres undefined) came in with an IC50 of 92 µM and a Ki of 82 µM.

As for `COc1cccc(S(=O)(=O)NC(=O)C(C)(C)Oc2cccc(N3CCCC(C(=O)N(Cc4ccc(-c5cccs5)cc4)C4CC4)C3)c2)c1` (centres undefined), in test [1], the IC50 was found to be 5.1 µM and the affinity corresponds to a Ki of 4.1 µM.

On to `Cn1nccc1-c1ccc(CN(C(=O)C2CCCN(c3cccc(OC(C)(C)C(=O)O)c3)C2)C2CC2)cc1` (centres undefined), for which, in test [1], the IC50 was more than 100 µM and the inhibition constant Ki is more than 90 µM.

In test [1], `CC(C)c1ccc(CNC(=O)C2CCCN(c3cccc(OC(C)(C)C(=O)O)c3)C2)cc1` (centres undefined) displayed an IC50 of 83 µM and a Ki of 71 µM.

In test [1], `CC(C)(Oc1cccc(N2CCCC(C(=O)N(Cc3ccc(-c4cccs4)cc3)C3CC3)C2)c1)C(=O)NS(C)(=O)=O` (centres undefined) showed an IC50 of 24 µM and a Ki of 21 µM.

For the molecule `CC(C)(Oc1cccc(N2CCCC(C(=O)N(Cc3ccc(-c4cccs4)cc3)C3CC3)C2)c1)C(=O)NS(=O)(=O)c1cccc(C#N)c1` (centres undefined), in test [1], the IC50 is 6.3 µM and the affinity corresponds to a Ki of 5.1 µM.

For the molecule `CC(C)(Oc1cccc(N2CCCC(C(=O)N(Cc3ccc(-c4cccs4)cc3)C3CC3)C2)c1)C(=O)NS(=O)(=O)c1cccc(O)c1` (centres undefined), in test [1], the IC50 was 7.1 µM and the affinity corresponds to a Ki of 5.8 µM.

In test [1], `CC(C)c1ccc(CN(C)C(=O)C2CCCN(c3cccc(OC(C)(C)C(=O)O)c3)C2)cc1` (centres undefined) yielded an IC50 of 71 µM and a Ki of 59 µM.

In test [1], `CC(C)(Oc1cccc(N2CCCC(C(=O)N(Cc3ccc(-c4ccsc4)cc3)C3CC3)C2)c1)C(=O)O` (centres undefined) had an IC50 of 35 µM and a Ki of 30 µM.

With `Cn1cc(-c2ccc(CN(C(=O)C3CCCN(c4cccc(OC(C)(C)C(=O)O)c4)C3)C3CC3)cc2)cn1` (centres undefined), in test [1], the IC50 was more than 100 µM and the Ki was more than 90 µM.

Turning to `CC(C)(Oc1cccc(N2CCCC(C(=O)N(Cc3ccc(-c4ccn[nH]4)cc3)C3CC3)C2)c1)C(=O)O` (centres undefined), in test [1], the IC50 came out at 72 µM and the affinity corresponds to a Ki of 61 µM.

The record behind these values is ChEMBL document CHEMBL4823263, “Discovery of 2-(3-(3-Carbamoylpiperidin-1-yl)phenoxy)acetic Acid Derivatives as Novel Small-Molecule Inhibitors of the β-Catenin/B-Cell Lymphoma 9 Protein-Protein Interaction” (J Med Chem, 2021).
